Results published in patent US10576125B2, “Methods for enhancing synaptogenesis and neuritogenesis” (HOUGH EAR INSTITUTE, priority 2016, dated 2020).

Experiments:
[1] = system: PC12 cell line; conditions: cited from earlier work
[2] = system: PC12 cell line; test: NGF-induced neuritogenesis in PC12 cells; format: cell-based
Experimental: This NGF-induced neuritogenic response was apparently saturable at concentrations at and above 10 ng/mL in this context.
FIG. 4 depicts the percentage of PC12 cells with significant neurite outgrowth. The pattern observed here is similar to that observed for treatment-induced increases in average neurite length. Taken together, these evaluations support the interpretation that HPN-07 acts in concert with NGF to promote both de novo neurite outgrowth and changes in the stability or assembly kinetics of neurites in such a manner as to support increases in mean neurite length, both of which are desirable features for re-innervation of IHCs.

[3] = system: murine spiral ganglion (SG) tissue explants; test: Neuritogenesis in murine spiral ganglion explants; format: cell-based, mouse; conditions: for neurite outgrowth induced by exogenous neurotrophic factor: at 10 μM (so in the source) relative to untreated controls, FIG. 24B, FIG. 26B
[4] = system: noise-damaged chinchilla; test: Live animal study in noise-damaged chinchilla; format: in vivo
[5] = system: IHC ribbon synapses in murine SGN-IHC co-culture; test: Kainic acid excitotoxic trauma in SGN-IHC co-culture; format: cell-based; conditions: for KA-induced shift of pre-synaptic densities from typical to apical distributions: quantitative evaluation
From the text: The previous findings were applied to a murine SGN-IHC co-culture model of excitotoxic trauma. In IHCs of undamaged co-cultures of auditory sensory epithelia (organs of Corti, OC) and associated spiral ganglion neurons (NC), most of the pre-synaptic C-terminal binding protein 2 (CtBP2)-immunoreactive puncta (small red dots) are located in a “typical,” cytoarchitectural position, located along the basal surface of the cell, below or surrounding the IHC nucleus (large red spheres). A marked shift from this typical CtBP2 basal immunoreactivity pattern to a more apical distribution pattern occurred after exposure to the excitotoxic glutamate analog, kainic acid (KA). […] The ability of HPN-07 to restore the structural integrity of ribbon synapses among IHCs following an excitotoxic trauma in this co-culture model is consistent with HPN-07 acting to promote synaptogenesis (i.e., re-innervation) in this context.
FIG. 6 summarizes a quantitative evaluation from a targeted comparison of the number and spatial distribution of ribbons among IHCs from untreated, BDNF-treated, or HPN-07-treated explants following excitotoxic exposure to KA. […] Each data point represents a composite of approximately ten independent measurements.

In the case of `CC(C)(C)[N+]([O-])=Cc1ccccc1` [PBN, alpha-phenyl N-tertiary-butyl nitrone], the “concentration required for inducing neuritogenesis in PC12 cells” value [1] is given as 10 mM.

For NGF: Nerve growth factor, the “concentrations at which the NGF-induced neuritogenic response is saturable” value ([2]; NGF alone) was at least 10 ng/mL and the neurite elongation ([2]; NGF alone) was “induced neurite elongation in a dose-dependent manner”.

For “2,4-disulfonyl α-phenyl tertiary butyl nitrone [HPN-07]”, the “potentiation of BDNF-induced neuritogenesis” value ([3]; BDNF 10 ng/mL + HPN-07 0.1 μM, 48 hours, serum-free medium, FIG. 2) was “potentiated neuritogenesis”, the “neurite outgrowth (number and length of neurites) from SG explants” value ([3]; HPN-07 alone vs untreated controls (NC), FIG. 1) was “induced marked neurite outgrowth” and the “concentration sufficient to induce a neuritogenic response” value ([3]; organotypic cultures of mouse spiral ganglion neurons) was 100 µM. The “number and extent of nerve fibers in addition to BDNF” value ([3]; with BDNF 10 ng/ml, FIG. 24) was “greatly increased the number and extent of nerve fibers”, the NT-3 induced neuritogenesis ([3]; with NT-3 10 ng/ml, FIG. 26) was “enhanced” and the functional recovery ([4]; long after the duration of treatment) was “progressive degree of functional recovery”. For the same molecule, the “inner hair cell neurite populations” value ([4]; relative to untreated controls) was “significantly greater inner hair cell neurite populations”, the mean neurite lengths ([2]; 1 μM HPN-07 + 10 ng/mL NGF, 6 days, FIG. 3) was “markedly surpassed the maximum lengths achieved in the saturable NGF dose-escalation series” and the “NGF-mediated neuritogenesis (mean neurite length)” value ([2]; 1 μM HPN-07 + 1 and 5 ng/mL NGF, 6 days, FIG. 3) was “enhances”. The “percentage of PC12 cells bearing neurites” value ([2]; HPN-07 + escalating doses of NGF, FIG. 4) was “significantly enhanced NGF-induced neuritogenesis”, the “neurite length, HPN-07 alone” value ([2]; low concentrations, no NGF) was “did not increase neurite length” and the “neurite densities along the base of IHCs” value ([5]; SGN-HC co-cultures following KA) was “increased neurite densities along the base of IHCs”. The “number of total ribbons among IHCs” value ([5]; after KA, compared with BDNF, FIG. 6) was “greater number of total ribbons”, the “KA-induced apical shift of CtBP2 puncta and loss of PSD-95 co-labeling (IHC ribbon synapse integrity)” value ([5]; post-excitotoxic treatment, 10 μM, FIG. 5) was “reversed this pathologic shift” and the “KA-induced shift of pre-synaptic densities from typical to apical distributions” value ([5]; FIG. 6) was “reversed this pathologic change”.

B1: NT-3: inherent neurotrophic factor in the inner ear, essential for development and survival of cochlear spiral ganglions (protein, UniProt P20783 139-257, looked up)
Neurotrophin-3: YAEHKSHRGEYSVCDSESLWVTDKSSAIDIRGHQVTVLGEIKTGNSPVKQYFYETRCKEARPVKNGCRGIDDKHWNSQCKTSQTYVRALTSENNKLVGWRWIRIDTSCVCALSRKIGRT
For B1, the “neurite outgrowth induced by exogenous neurotrophic factor” value [3] was “induced significant neurite outgrowth”.

B2: BDNF: Brain-derived neurotrophic factor, the canonical cochlear neuritogenic growth factor (protein, UniProt P23560 19-247, looked up)
Neurotrophic factor BDNF …: APMKEANIRGQGGLAYPGVRTHGTLESVNGPKAGSRGLTSLADTFEHVIEELLDEDQKVRPNEENNKDADLYTSRVMLSSQVPLEPPLLFLLEEYKNYLDAANMSMRVRRHSDPARRGELSVCDSISEWVTAADKKTAVDMSGGTVTVLEKVPVSKGQLKQYFYETKCNPMGYTKEGCRGIDKRHWNSQCRTTQSYVRALTMDSKKRIGWRFIRIDTSCVCTLTIKRGR
For B2, the “neurite outgrowth induced by exogenous neurotrophic factor” value [3] was “induced significant neurite outgrowth” and the “KA-induced shift of pre-synaptic densities from typical to apical distributions” value ([5]; FIG. 6) was “reversed this pathologic change”.
